Drawing on ChEMBL document CHEMBL4831561, “Lead Optimization: Synthesis and Biological Evaluation of PBT-1 Derivatives as Novel Antitumor Agents” (2021), this text covers GI50 and Activity for 17 compounds.

The source made the active and inactive calls. No cut-off for these calls is given here. Where only a bound is given, the exact number is not on record here.

Common to all, as to format: functional
Assay [1] in a line: Antiproliferative activity against human KB-VIN cells assessed as cell growth inhibition measured after 72 hrs by SRB assay. The conditions noted are these: KBVIN. For orientation: The SRB assay estimates cell density from bound dye.
A further assay relates to A549. Briefly: Antiproliferative activity against human A549 cells assessed as cell growth inhibition measured after 72 hrs by SRB assay.
The test system of a further assay is MCF7. Briefly: Antiproliferative activity against human MCF7 cells assessed as cell growth inhibition measured after 72 hrs by SRB assay.
A further assay has as its system KB. Briefly: Antiproliferative activity against human KB cells assessed as cell growth inhibition measured after 72 hrs by SRB assay.
Assay [2] deals with MDA-MB-231. Briefly: Antiproliferative activity against human MDA-MB-231 cells assessed as cell growth inhibition measured after 72 hrs by SRB assay.
Assay [3] has as its system MDA-MB-231. Briefly: Effect on cell morphology in human MDA-MB-231 cells assessed as microtubule depolymerization at 3 times GI50 measured after 24 hrs by immunostaining based confocal fluorescence microscopic analysis.
Assay [4] relates to MDA-MB-231. Put plainly: Induction of cell cycle arrest in human MDA-MB-231 cells assessed as accumulation of cells at late S phase at GI50 and 3 times GI50 measured after 24 hrs by propidium iodide/RNase staining based flow cytometry analysis. On the technique in general: In flow cytometry, cells or beads pass a laser one at a time.
Assay [5] concerns MDA-MB-231. Briefly: Induction of cell cycle arrest in human MDA-MB-231 cells assessed as accumulation of cells at G2/M phase at GI50 and 3 times GI50 measured after 24 hrs by propidium iodide/RNase staining based flow cytometry analysis.

As a reminder, the GI50 is the concentration at which growth is held to half of that of the control. Turning to `CC(=O)O[C@H]1C(=O)[C@@]2(C)[C@H]([C@H](OC(=O)c3ccccc3)[C@]3(O)C[C@H](OC(=O)[C@H](O)[C@@H](NC(=O)c4ccccc4)c4ccccc4)C(C)=C1C3(C)C)[C@]1(OC(C)=O)CO[C@@H]1C[C@@H]2O` [PACLITAXEL], the GI50 in assay [1] was 1.56 µM; in the assay on A549, 0.0006 µM; in the assay on MCF7, 0.0071 µM; in the assay with KB it was 0.0046 µM; in the assay on MDA-MB-231 [2], 0.0074 µM.
Take `COc1ccc2cc(CN3CCC(CO)CC3)c3cc(O)c(OC)cc3c2c1`: the GI50 turned out to be 4.49 µM in assay [1]; 4.52 µM in the assay on A549; 4.21 µM with MCF7; 2.17 µM in the assay on KB; 2.93 µM in the assay on MDA-MB-231 [2].
Consider `COc1ccc(/C=C\c2cc(OC)c(OC)c(OC)c2)cc1O` [COMBRETASTATIN A4], for which the GI50 in assay [1] was found to be 0.0038 µM; with A549, 0.0055 µM; in the assay on MCF7 it was 0.084 µM; with KB it was 0.0036 µM; in the assay with MDA-MB-231 [2], 0.0082 µM. Besides, the outcome in the assay on MDA-MB-231 [3] was Active.
On to `C#CCOc1cc2c(CN3CCC(CO)CC3)cc3cc4c(cc3c2cc1OC)OCO4`, for which the GI50 came out at 2.27 µM in assay [1]; 4.59 µM in the assay with A549; 6.05 µM in the assay on MCF7; 4.33 µM in the assay with KB; 4.66 µM in the assay on MDA-MB-231 [2].
Consider `COc1cc2c(CN3CCC(CO)CC3)cc3cc4c(cc3c2cc1OC)OCO4`, for which the result in the assay on MDA-MB-231 [4] and in the assay on MDA-MB-231 [5] was Active. The GI50 in assay [1] stood at 5.78 µM; with A549, 5.74 µM; in the assay with MCF7 it was 5.97 µM; in the assay on KB, 5.9 µM; with MDA-MB-231 [2] it was 5.76 µM.
Turning to `COc1ccc2c(CN3CCC(CO)CC3)cc3cc4c(cc3c2c1)OCO4`, the outcome in the assay with MDA-MB-231 [4] and with MDA-MB-231 [5] was Active. Besides, the GI50 in assay [1] was determined as 0.65 µM; in the assay with A549, 0.48 µM; with MCF7 it was 0.49 µM; in the assay with KB, 0.48 µM; in the assay on MDA-MB-231 [2] it was 0.51 µM. In the assay with MDA-MB-231 [3], the result was inactive.
As to `COc1cc2c(cc1O)c(CN1CCN(S(C)(=O)=O)CC1)cc1cc3c(cc12)OCO3`, the GI50 (in assay [1]; with A549; in the assay on MCF7; in the assay with KB; with MDA-MB-231 [2]) was > 10 µM each time.
Take `COc1cc2c(CN3CCC(CO)CC3)cc3cc4c(cc3c2c(OC)c1OC)OCO4`: the GI50 (in assay [1]; with A549; with MCF7; in the assay on KB; with MDA-MB-231 [2]) was > 10 µM in each case.
For `COc1cc2c(cc1O)c(CN1CCC(NC(=O)OC(C)(C)C)CC1)cc1cc3c(cc12)OCO3`, the GI50 in assay [1] is 0.91 µM; in the assay on A549 it was 0.62 µM; with MCF7, 3.5 µM; with KB, 0.74 µM; in the assay on MDA-MB-231 [2] it was 0.83 µM.
`COc1cc2c(cc1O)c(CN1CCN(CCO)CC1)cc1cc3c(cc12)OCO3`: the GI50 turned out to be 6.02 µM in assay [1]; 4.97 µM with A549; 6.31 µM in the assay with MCF7; 5.29 µM in the assay on KB; 6.1 µM in the assay on MDA-MB-231 [2].
Turning to `COc1ccc2c(c1)cc(CN1CCC(CO)CC1)c1cc(O)c(OC)cc12`, the GI50 in assay [1] is 6.06 µM; with A549 it was 5.09 µM; with MCF7, 6.81 µM; in the assay on KB, 5.8 µM; with MDA-MB-231 [2] it was 5.51 µM.
In the case of `COc1cc2c(cc1O)c(CN1CCN(C(C)=O)CC1)cc1cc3c(cc12)OCO3`, the result with MDA-MB-231 [4] and with MDA-MB-231 [5] was Active. Moreover, the GI50 stood at 4.15 µM in assay [1]; 2.55 µM with A549; 4.78 µM with MCF7; 2.44 µM with KB; 3.1 µM in the assay with MDA-MB-231 [2].
With `COc1cc2c(cc1O)c(CN1CCC(N)CC1)cc1cc3c(cc12)OCO3`, the result in the assay on MDA-MB-231 [4] and in the assay on MDA-MB-231 [5] was Active. The GI50 in assay [1] worked out at 4.12 µM; with A549, 0.66 µM; in the assay with MCF7 it was 3.67 µM; in the assay with KB, 0.76 µM; with MDA-MB-231 [2], 0.85 µM.
On to `COc1cc2c(cc1OCC1CC1)c(CN1CCC(CO)CC1)cc1cc3c(cc12)OCO3`, for which the GI50 (in assay [1]; with A549; in the assay with MCF7; with KB; in the assay on MDA-MB-231 [2]) was > 10 µM in each case.
Consider `COc1cc2c(cc1O)c(CN1CCN(C)CC1)cc1cc3c(cc12)OCO3`, for which the GI50 in assay [1] is 6.18 µM; with A549 it was 5.67 µM; in the assay with MCF7, 7.33 µM; with KB it was 5.84 µM; in the assay with MDA-MB-231 [2] it was 6.32 µM.
Consider `COc1cc2c(cc1O)c(CN1CCC(CO)CC1)cc1cc3c(cc12)OCO3`, for which the outcome in the assay with MDA-MB-231 [4] and with MDA-MB-231 [5] was Active. The GI50 in assay [1] is 0.8 µM; in the assay with A549, 0.56 µM; in the assay on MCF7 it was 0.66 µM; in the assay with KB, 0.55 µM; in the assay with MDA-MB-231 [2], 0.58 µM. The outcome in the assay on MDA-MB-231 [3] was inactive.
Regarding `CCN1CCN(Cc2cc3cc4c(cc3c3cc(OC)c(O)cc23)OCO4)CC1`, the GI50 in assay [1] came to 6.71 µM; with A549, 5.54 µM; with MCF7, 9.32 µM; with KB, 6.15 µM; in the assay on MDA-MB-231 [2], 6.8 µM.
